Read-outs that look alike come from different tables or passages of the source.
Tests used:
[1] = biological target: PI3 kinase alpha (Homo sapiens, UniProt P42336); assay: PI3K ATP depletion assay (Biological Method 1, Assay 3; KinaseGlo luminescence); type: biochemical; details: ATP depletion assay, read-out: PI3 Kinase Alpha, IC50
Procedure, shortened: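 Compound in DMSO was mixed with 10 nM PI3 kinase and 5 μg/mL phosphatidylinositol, and the reaction was started with 2 μM ATP. It ran to about 50% ATP depletion and was stopped with KinaseGlo.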

[2] = test system: A2780 ovarian cancer cells; assay: Cellular proliferation in A2780 cells, Cell Titer Glo (Biological Method 4); type: cell-based; details: Homo sapiens
Procedure, shortened: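 A2780 cells seeded at 1,000/well in DMEM with 10% FBS, at least 2 h before compound, then exposed 72 h at 37 °C, 5% CO2. Viable cells measured by Cell Titer Glo luminescence; EC50 calculated from duplicate conditions.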

[3] = ovarian cancer cell line A2780, Biological Method 4

PI3 kinase alpha, sequence (P42336 whole entry): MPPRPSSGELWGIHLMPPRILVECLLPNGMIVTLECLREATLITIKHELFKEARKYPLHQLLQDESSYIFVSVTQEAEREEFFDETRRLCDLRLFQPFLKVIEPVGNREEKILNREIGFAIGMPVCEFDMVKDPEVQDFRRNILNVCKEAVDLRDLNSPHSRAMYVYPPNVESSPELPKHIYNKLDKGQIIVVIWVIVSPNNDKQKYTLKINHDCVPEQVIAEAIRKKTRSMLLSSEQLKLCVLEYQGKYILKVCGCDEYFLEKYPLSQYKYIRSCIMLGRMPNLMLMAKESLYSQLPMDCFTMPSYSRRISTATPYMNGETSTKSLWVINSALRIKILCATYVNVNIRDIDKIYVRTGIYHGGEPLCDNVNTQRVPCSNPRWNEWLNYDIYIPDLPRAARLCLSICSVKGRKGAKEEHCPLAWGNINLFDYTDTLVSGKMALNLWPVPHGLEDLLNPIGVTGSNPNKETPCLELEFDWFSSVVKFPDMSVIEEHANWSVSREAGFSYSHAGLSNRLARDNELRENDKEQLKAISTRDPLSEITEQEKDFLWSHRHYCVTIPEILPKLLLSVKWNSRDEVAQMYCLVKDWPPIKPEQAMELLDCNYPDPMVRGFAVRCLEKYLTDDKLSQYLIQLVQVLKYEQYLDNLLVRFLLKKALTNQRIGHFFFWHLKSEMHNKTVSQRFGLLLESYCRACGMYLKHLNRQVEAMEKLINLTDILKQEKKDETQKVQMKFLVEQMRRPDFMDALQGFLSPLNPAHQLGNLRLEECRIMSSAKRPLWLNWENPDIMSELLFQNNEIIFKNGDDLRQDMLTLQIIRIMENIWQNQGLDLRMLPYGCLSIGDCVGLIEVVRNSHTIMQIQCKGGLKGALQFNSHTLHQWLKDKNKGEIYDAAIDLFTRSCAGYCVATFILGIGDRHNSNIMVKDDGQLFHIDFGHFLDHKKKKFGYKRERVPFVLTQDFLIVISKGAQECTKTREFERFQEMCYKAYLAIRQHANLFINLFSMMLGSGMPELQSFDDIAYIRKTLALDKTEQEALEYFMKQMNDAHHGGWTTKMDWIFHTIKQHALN
PI3 kinase alpha, sequence (P27986 whole entry partner): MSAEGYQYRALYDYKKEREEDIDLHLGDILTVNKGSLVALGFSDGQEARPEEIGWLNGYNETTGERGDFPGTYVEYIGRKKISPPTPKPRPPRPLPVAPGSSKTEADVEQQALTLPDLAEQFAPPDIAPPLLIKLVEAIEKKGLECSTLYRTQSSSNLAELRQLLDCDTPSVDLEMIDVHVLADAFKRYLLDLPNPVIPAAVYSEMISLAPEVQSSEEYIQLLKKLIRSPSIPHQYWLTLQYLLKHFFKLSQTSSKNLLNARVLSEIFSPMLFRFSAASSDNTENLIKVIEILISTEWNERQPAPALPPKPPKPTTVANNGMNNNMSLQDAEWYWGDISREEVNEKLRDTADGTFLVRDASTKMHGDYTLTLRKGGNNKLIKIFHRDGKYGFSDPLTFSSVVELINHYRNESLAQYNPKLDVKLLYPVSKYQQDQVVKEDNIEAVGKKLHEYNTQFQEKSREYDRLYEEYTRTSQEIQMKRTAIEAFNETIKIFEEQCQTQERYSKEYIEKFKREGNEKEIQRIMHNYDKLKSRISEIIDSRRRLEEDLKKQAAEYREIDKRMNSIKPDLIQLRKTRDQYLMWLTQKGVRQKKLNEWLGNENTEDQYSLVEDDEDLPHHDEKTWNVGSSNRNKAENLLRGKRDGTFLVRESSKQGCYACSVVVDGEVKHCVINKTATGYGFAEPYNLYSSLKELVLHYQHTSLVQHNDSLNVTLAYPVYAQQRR

SMILES | IC50 [1] [nM] | EC50 ([2]; ovarian cancer cell line A2780) [nM] | IC50 ([1]; Biological Method 1) [nM] | EC50 [2, 3] [nM]
Nc1ncc(-c2cc(Nc3ccc4c(c3)OCC(=O)N4)nc(N3CCOCC3)n2)cn1 [Compound 412] | < 1000 | < 1000 | – | –
Nc1ncc(-c2cc(-c3ccc(F)nc3)nc(N3CCOCC3)n2)cn1 [Compound 278] | – | – | < 1000 | < 10000
C[C@@H]1CN(c2cc(-c3cnc(N)cc3C(F)(F)F)nc(N3CCOCC3)n2)C[C@H](C)O1 [Compound 327] | – | – | < 1000 | < 10000
Nc1ccc(-c2cc(Nc3ccc4c(c3)OCCO4)nc(N3CCOCC3)n2)cn1 [Compound 386] | – | – | < 1000 | < 10000
Nc1ccc(-c2cc(Nc3ccc(OC(CO)CO)nc3)nc(N3CCOCC3)n2)cn1 [Compound 271] | – | – | < 1000 | < 25000
N#Cc1cc(N)ncc1-c1cc(-c2cnc(N)cc2C#N)nc(N2CCOCC2)n1 [Compound 317] | – | – | < 1000 | < 10000
Nc1ncc(-c2cc(O[C@H]3CCCN(C(=O)c4ccc(F)cc4)C3)nc(N3CCOCC3)n2)c(N)n1 [Compound 528] | < 1000 | < 10000 | – | –
CC(C)N1CCN(c2ccc(Nc3cc(-c4cnc(N)cc4C(F)(F)F)nc(N4CCOCC4)n3)cn2)CC1 [Compound 488] | < 1000 | < 10000 | – | –
Nc1cc(C(F)(F)F)c(-c2cc(N3CCCCC3=O)nc(N3CCOCC3)n2)cn1 [Compound 17] | < 1000 | < 1000 | – | –
Nc1ccc(-c2cc(Nc3ccc4nccnc4c3)nc(N3CCOCC3)n2)cn1 [Compound 377] | – | – | < 1000 | < 10000
NC(=O)C1CN(c2cc(-c3cnc(N)cc3C(F)(F)F)nc(N3CCOCC3)n2)CCO1 (stereo not drawn) [Compound 320] | – | – | < 1000 | < 10000
Nc1cc(C(F)(F)F)c(-c2cc(Nc3cnc4ccc(OCCN5CCCC5)cc4c3)nc(N3CCOCC3)n2)cn1 [Compound 489] | < 1000 | < 10000 | – | –
Nc1cc(C(F)(F)F)c(-c2cc(Nc3nc(-c4ccccc4)cs3)nc(N3CCOCC3)n2)cn1 [Compound 554] | < 1000 | < 10000 | – | –
Nc1ccc(-c2nc(N3CCOCC3)ncc2N)cn1 [Compound 259] | – | – | < 10000 | < 25000
COC(=O)N1CCC[C@@H](Oc2cc(-c3cnc(N)cc3C(F)(F)F)nc(N3CCOCC3)n2)C1 [Compound 452] | < 1000 | < 10000 | – | –
Nc1cc(C(F)(F)F)c(-c2cc(Nc3ccc(-c4nn[nH]n4)cc3)nc(N3CCOCC3)n2)cn1 [Compound 281] | – | – | < 1000 | < 25000
Nc1ncc(-c2cc(Nc3nccc(C(F)(F)F)n3)nc(N3CCOCC3)n2)c(C(F)(F)F)n1 [Compound 216] | – | – | < 1000 | < 10000
Cc1nc(N)ncc1-c1cc(Nc2ccc3c(c2)OCCO3)nc(N2CCOCC2)n1 [Compound 477] | < 1000 | < 10000 | – | –
NC(=O)c1ccnc(Nc2cc(-c3cnc(N)cc3C(F)(F)F)nc(N3CCOCC3)n2)c1 [Compound 242] | – | – | < 1000 | < 10000
Nc1ncc(-c2cc(C(=O)N3CCNCC3)nc(N3CCOCC3)n2)cn1 [Compound 233] | – | – | < 1000 | < 10000
Nc1ncc(-c2cc(O[C@@H]3CCOC3)nc(N3CCOCC3)n2)c(C(F)(F)F)n1 [Compound 531] | < 1000 | < 10000 | – | –
COc1cncc(-c2nc(N3CCOCC3)nc(-c3cnc(N)nc3)c2C)c1 [Compound 475] | < 1000 | < 10000 | – | –
CC(=O)N1CCC(Oc2cc(-c3cnc(N)cc3C(F)(F)F)nc(N3CCOCC3)n2)CC1 [Compound 19] | < 1000 | < 1000 | – | –
Nc1ncc(-c2cc(Nc3ccc4[nH]cnc4c3)nc(N3CCOCC3)n2)cn1 [Compound 521] | < 1000 | < 10000 | – | –
Nc1cc(C(F)(F)F)c(-c2cc(NC3CCOCC3)nc(N3CCOCC3)n2)cn1 [Compound 322] | – | – | < 1000 | < 25000
Nc1ncc(-c2cc(OCCCN3CCOCC3)nc(N3CCOCC3)n2)cn1 [Compound 511] | < 1000 | < 10000 | – | –
Nc1ncc(-c2cc(Nc3ccc4[nH]ncc4c3)nc(N3CCOCC3)n2)cn1 [Compound 522] | < 1000 | < 10000 | – | –
